The source of these data is patent publication US20050238635A1, “Use of hyrogen peroxide producting enzyme for treatment of otitis media” (priority 2002, published 2005).

In assay [1] the test system is M catarrhalis (Mcat-res). The assay can be described thus: broth test of alpha 4 co-cultured with resistant M catarrhalis (Mcat-res), with amitrole. It counts as cell-based. The note with it: amitrole 50 mM in broth, 7 hours, 37° C. As to the method:
Amitrole is an irreversible catalase inhibitor [12]. If an increased or more efficient catalase production was involved in the development of resistance of M cararrhalis to an isolate of AHS. This resistance would be reverted by addition of amitrole. In broth tests with alpha 4 together with M catarrhalis in 5 ml broth, 50 mM (0.1 ml) of amitrole (3-amino-1,2,4-triazole), was added into the solution and incubated for 7 hours at 37° C. in air with intermittent shaking. The isolate of M catarrhalis (Mcat-res) had developed resistance against alpha 4 after co-culturing in broth. CFU counts were calculated at start and after 7 hours of incubation. Alpha 4 with M catarrhalis in broth without amitrole, broth and M catarrhalis alone and M catarrhalis alone with amitrole in broth served as controls.

Assay [2] is described as follows: trypsin tested together with hydrogen peroxide for catalase effect. In kind it is biochemical.
For assay [3], the system named is H influenzae. Briefly: filtrate test: inhibitory effect of cell-free PBS filtrate of AHS on growth (CFU) of H influenzae. It counts as cell-based. Here is the method: Numbers of colony forming units (CFU) were counted after serial dilutions in PBS and growth over night at 37° C. in air. Identification of the bacteria was based on different morphology of the isolates growing on the agar plates. AHS and M catarrhalis were grown on agar plates with 7% human blood and McLeod plates were used when H influenzae was assayed.
To achieve a filtrate with inhibitory activity, about 10^6 CFU of AHS were inoculated in 4 vials, each containing 15 ml of broth and incubated for 12 hours. The suspension was then centrifuged at 3000 rpm for 15 min and the supernatant was thrown away. The bacteria were transferred into one vial and two ml of phosphate buffered saline (PBS) was added and incubated at 37° C. for 5 hours. The suspension was then passed through a 0.2 μm sterile filter to remove the bacteria. Otitis media pathogens (0.1 ml) were then added to the filtrate (1 ml) and incubated at 37° C. The controls were incubated in fresh PBS.
Catalase is a specific enzyme catalyzing the conversion of H2O2 into O2 and H2O. This reaction proceeds rapidly. Purified catalase from human erythrocytes (>30.000U/mg) was used in the assays. The assays were performed as described above in the filtrate tests, with the exception that catalase, 1000 U/ml (=0.01 ml), was added to the vials with filtrate and PBS. […]

Consider `Nc1nc[nH]n1` [amitrole, 3-amino-1,2,4-triazole], for which, in assay [1], the “sensitivity of resistant M catarrhalis to inhibition of alpha 4 when amitrole added” value was “became sensitive”.

Regarding Trypsin, the catalase effect entry in assay [2] is on record as “no catalase effect”. Further, the “reversal of the inhibitory effect of the cell-free filtrate of alpha 89” value in assay [3] (trypsin 2.5 mg/ml, filtrate incubated with H influenzae) is reported as “only slightly reverse”.

B1: Catalase: Purified catalase from human erythrocytes; enzyme catalyzing the conversion of H2O2 into O2 and H2O (protein, UniProt P04040 2-527, looked up)
Catalase: ADSRDPASDQMQHWKEQRAAQKADVLTTGAGNPVGDKLNVITVGPRGPLLVQDVVFTDEMAHFDRERIPERVVHAKGAGAFGYFEVTHDITKYSKAKVFEHIGKKTPIAVRFSTVAGESGSADTVRDPRGFAVKFYTEDGNWDLVGNNTPIFFIRDPILFPSFIHSQKRNPQTHLKDPDMVWDFWSLRPESLHQVSFLFSDRGIPDGHRHMNGYGSHTFKLVNANGEAVYCKFHYKTDQGIKNLSVEDAARLSQEDPDYGIRDLFNAIATGKYPSWTFYIQVMTFNQAETFPFNPFDLTKVWPHKDYPLIPVGKLVLNRNPVNYFAEVEQIAFDPSNMPPGIEASPDKMLQGRLFAYPDTHRHRLGPNYLHIPVNCPYRARVANYQRDGPMCMQDNQGGAPNYYPNSFGAPEQQPSALEHSIQYSGEVRRFNTANDDNVTQVRAFYVNVLNEEQRKRLCENIAGHLKDAQIFIQKKAVKNFTEVHPDYGSHIQALLDKYNAEKPKNAIHTFVQSGSHLAAREKANL
Consider B1, for which, in assay [3] (catalase 1000U/ml, filtrate of alpha 89 incubated with H influenzae), the “reversal of the inhibitory effect of the cell-free filtrate of AHS” value was “completely reverse”.
